Laboratory results from ChEMBL document CHEMBL1201862, “PubChem BioAssay data set” (2004).
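Results reflect a 48-hour exposure of cells in 96-well plates to compound at five concentrations. GI50: concentration for 50% inhibition of growth.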 The source made the active and inactive calls. Rule as the data show it: active = GI50 up to about 1.1 µM and inactive = higher.

What was measured:
Test in all cases: growth of human tumour cells (NCI), 48 h
LXFL 529 = test system: LXFL 529
DLD-1 = test system: DLD-1
XF498 = test system: XF498
DMS-114 = test system: DMS-114
RXF 631 = test system: RXF 631
HOP-18 = test system: HOP-18
M19-MEL = test system: M19-MEL
SNB-78 = test system: SNB-78
DMS-273 = test system: DMS-273

Measured: GI50

CC(Oc1cc2oc(=O)cc(-c3ccccc3)c2cc1Cl)C(=O)O (stereo not given)
inactive: LXFL 529 > 100 µM | DLD-1 > 100 µM | XF498 33.5 µM | DMS-114 > 100 µM | RXF 631 > 100 µM | HOP-18 > 100 µM | M19-MEL > 100 µM | SNB-78 > 100 µM

Cc1cc2c(cc1C)[n+]([O-])c(-c1c(Cl)cccc1Cl)c(N)[n+]2[O-]
inactive: LXFL 529 31.6 µM | DLD-1 30.7 µM | DMS-114 22.6 µM | RXF 631 18.2 µM | DMS-273 32.1 µM | HOP-18 18.9 µM | M19-MEL 34.9 µM | SNB-78 43.9 µM

O=C1OC(CC(=O)c2ccccc2Cl)C(Cl)=C1Cl (stereo not given)
inactive: LXFL 529 > 100 µM | DLD-1 > 100 µM | DMS-114 > 100 µM | RXF 631 62.4 µM | HOP-18 > 100 µM | M19-MEL > 100 µM | SNB-78 33 µM

CCOC(=O)NC(=O)c1cn(CCN2CCN(C(=O)NCCCCCCNC(=O)N3CCN(CCn4cc(C(=O)NC(=O)OCC)c(=O)[nH]c4=O)CC3)CC2)c(=O)[nH]c1=O
inactive: LXFL 529 > 100 µM | XF498 > 100 µM | DMS-114 > 100 µM | RXF 631 > 100 µM | DMS-273 > 100 µM | HOP-18 > 100 µM | M19-MEL > 100 µM | SNB-78 > 100 µM

COC(=O)C(CC(C)=O)CS(=O)(=O)CC(=O)C(=O)Nc1cccc([N+](=O)[O-])c1 (stereo not given)
inactive: LXFL 529 > 100 µM | DLD-1 > 100 µM | XF498 55.6 µM | DMS-114 > 100 µM | RXF 631 > 100 µM | DMS-273 > 100 µM | HOP-18 > 100 µM | M19-MEL > 100 µM | SNB-78 > 100 µM
